According to patent publication US8951964B2, “Phenanthridine macrocyclic hepatitis C serine protease inhibitors” (priority 2010, dated 2015):

Test system: genotype 1a transient replicon (1a-H77)
Test: 1a transient replicon (luciferase reporter)
Format: cell-based, HCV
Settings: Hepatitis C virus, HuH-7 cells, 5% FBS

SMILES	EC50 [nM]
Cc1ccc(C(=O)N[C@H]2CCCCC/C=C\[C@@H]3C[C@@]3(C(=O)NS(=O)(=O)C3(C)CC3)NC(=O)[C@@H]3C[C@@H](Oc4nc5ccccc5c5cc(F)ccc45)CN3C2=O)s1	0.1 to 0.5
Cn1ccc(C(=O)N[C@H]2CCCCC/C=C\[C@@H]3C[C@@]3(C(=O)NS(=O)(=O)C3CC3)NC(=O)[C@@H]3C[C@@H](Oc4nc5ccccc5c5cc(OC(F)(F)F)ccc45)CN3C2=O)n1	0.1 to 0.5
Cc1cc(C(=O)N[C@H]2CCCCC/C=C\[C@@H]3C[C@@]3(C(=O)NS(=O)(=O)C3CC3)NC(=O)[C@@H]3C[C@@H](Oc4nc5ccccc5c5cc(OC(F)(F)F)ccc45)CN3C2=O)no1	< 0.1
COc1ccc2c(c1)nc(O[C@@H]1C[C@H]3C(=O)N[C@]4(C(=O)NS(=O)(=O)C5(C)CC5)C[C@H]4/C=C\CCCCC[C@H](NC(=O)c4ccn(C)n4)C(=O)N3C1)c1ccc(F)cc12	0.1 to 0.5
CC1(S(=O)(=O)NC(=O)[C@@]23C[C@H]2/C=C\CCCCC[C@H](NC(=O)[C@H](O)C(F)(F)F)C(=O)N2C[C@H](Oc4nc5cc(OC(F)(F)F)ccc5c5ccccc45)C[C@H]2C(=O)N3)CC1	< 0.1
CC1(S(=O)(=O)NC(=O)[C@@]23C[C@H]2/C=C\CCCCC[C@H](NC(=O)c2ccn(C(F)F)n2)C(=O)N2C[C@H](Oc4nc5cc(F)ccc5c5ccc(OC(F)(F)F)cc45)C[C@H]2C(=O)N3)CC1	0.1 to 0.5
CC1(S(=O)(=O)NC(=O)[C@@]23C[C@H]2/C=C\CCCCC[C@H](NC(=O)[C@H](O)C(F)(F)F)C(=O)N2C[C@H](Oc4nc5ccccc5c5cc(F)ccc45)C[C@H]2C(=O)N3)CC1	< 0.1
Cc1cc(C(=O)N[C@H]2CCCCC/C=C\[C@@H]3C[C@@]3(C(=O)NS(=O)(=O)C3(C)CC3)NC(=O)[C@@H]3C[C@@H](Oc4nc5cc(F)ccc5c5ccc(OC(F)(F)F)cc45)CN3C2=O)no1	< 0.1
CC1(S(=O)(=O)NC(=O)[C@@]23C[C@H]2/C=C\CCCCC[C@H](NC(=O)[C@H](O)C(F)(F)F)C(=O)N2C[C@H](Oc4nc5cc(F)ccc5c5cc(F)ccc45)C[C@H]2C(=O)N3)CC1	< 0.1
CC1(S(=O)(=O)NC(=O)[C@@]23C[C@H]2/C=C\CCCCC[C@H](NC(=O)c2ccn(C(F)F)n2)C(=O)N2C[C@H](Oc4nc5ccccc5c5ccc(OC(F)(F)F)cc45)C[C@H]2C(=O)N3)CC1	0.1 to 0.5
Cn1ccc(C(=O)N[C@H]2CCCCC/C=C\[C@@H]3C[C@@]3(C(=O)NS(=O)(=O)C3(C)CC3)NC(=O)[C@@H]3C[C@@H](Oc4nc5ccccc5c5ccc(OC(F)(F)F)cc45)CN3C2=O)n1	0.1 to 0.5
COc1ccc2c(c1)nc(O[C@@H]1C[C@H]3C(=O)N[C@]4(C(=O)NS(=O)(=O)C5(C)CC5)C[C@H]4/C=C\CCCCC[C@H](NC(=O)c4ccon4)C(=O)N3C1)c1ccc(F)cc12	< 0.1
COc1ccc2c(c1)nc(O[C@@H]1C[C@H]3C(=O)N[C@]4(C(=O)NS(=O)(=O)C5(C)CC5)C[C@H]4/C=C\CCCCC[C@H](NC(=O)c4ccn(C(F)F)n4)C(=O)N3C1)c1ccc(F)cc12	0.1 to 0.5
Cc1ccc(C(=O)N[C@H]2CCCCC/C=C\[C@@H]3C[C@@]3(C(=O)NS(=O)(=O)C3(C)CC3)NC(=O)[C@@H]3C[C@@H](Oc4nc5cc(F)ccc5c5cc(F)ccc45)CN3C2=O)s1	0.1 to 0.5

Test system: genotype 1b transient replicon
Test: 1b transient replicon (luciferase reporter)
Format: cell-based, HCV
Settings: Hepatitis C virus, HuH-7 cells, 5% FBS

SMILES	EC50 [nM]
Cc1ccc(C(=O)N[C@H]2CCCCC/C=C\[C@@H]3C[C@@]3(C(=O)NS(=O)(=O)C3(C)CC3)NC(=O)[C@@H]3C[C@@H](Oc4nc5ccccc5c5cc(F)ccc45)CN3C2=O)s1	0.1 to 0.5
Cn1ccc(C(=O)N[C@H]2CCCCC/C=C\[C@@H]3C[C@@]3(C(=O)NS(=O)(=O)C3CC3)NC(=O)[C@@H]3C[C@@H](Oc4nc5ccccc5c5cc(OC(F)(F)F)ccc45)CN3C2=O)n1	0.1 to 0.5
Cc1cc(C(=O)N[C@H]2CCCCC/C=C\[C@@H]3C[C@@]3(C(=O)NS(=O)(=O)C3CC3)NC(=O)[C@@H]3C[C@@H](Oc4nc5ccccc5c5cc(OC(F)(F)F)ccc45)CN3C2=O)no1	0.1 to 0.5
COc1ccc2c(c1)nc(O[C@@H]1C[C@H]3C(=O)N[C@]4(C(=O)NS(=O)(=O)C5(C)CC5)C[C@H]4/C=C\CCCCC[C@H](NC(=O)c4ccn(C)n4)C(=O)N3C1)c1ccc(F)cc12	0.1 to 0.5
CC1(S(=O)(=O)NC(=O)[C@@]23C[C@H]2/C=C\CCCCC[C@H](NC(=O)[C@H](O)C(F)(F)F)C(=O)N2C[C@H](Oc4nc5cc(OC(F)(F)F)ccc5c5ccccc45)C[C@H]2C(=O)N3)CC1	< 0.1
CC1(S(=O)(=O)NC(=O)[C@@]23C[C@H]2/C=C\CCCCC[C@H](NC(=O)c2ccn(C(F)F)n2)C(=O)N2C[C@H](Oc4nc5cc(F)ccc5c5ccc(OC(F)(F)F)cc45)C[C@H]2C(=O)N3)CC1	0.1 to 0.5
CC1(S(=O)(=O)NC(=O)[C@@]23C[C@H]2/C=C\CCCCC[C@H](NC(=O)[C@H](O)C(F)(F)F)C(=O)N2C[C@H](Oc4nc5ccccc5c5cc(F)ccc45)C[C@H]2C(=O)N3)CC1	< 0.1
Cc1cc(C(=O)N[C@H]2CCCCC/C=C\[C@@H]3C[C@@]3(C(=O)NS(=O)(=O)C3(C)CC3)NC(=O)[C@@H]3C[C@@H](Oc4nc5cc(F)ccc5c5ccc(OC(F)(F)F)cc45)CN3C2=O)no1	0.1 to 0.5
CC1(S(=O)(=O)NC(=O)[C@@]23C[C@H]2/C=C\CCCCC[C@H](NC(=O)[C@H](O)C(F)(F)F)C(=O)N2C[C@H](Oc4nc5cc(F)ccc5c5cc(F)ccc45)C[C@H]2C(=O)N3)CC1	< 0.1
CC1(S(=O)(=O)NC(=O)[C@@]23C[C@H]2/C=C\CCCCC[C@H](NC(=O)c2ccn(C(F)F)n2)C(=O)N2C[C@H](Oc4nc5ccccc5c5ccc(OC(F)(F)F)cc45)C[C@H]2C(=O)N3)CC1	0.1 to 0.5
Cn1ccc(C(=O)N[C@H]2CCCCC/C=C\[C@@H]3C[C@@]3(C(=O)NS(=O)(=O)C3(C)CC3)NC(=O)[C@@H]3C[C@@H](Oc4nc5ccccc5c5ccc(OC(F)(F)F)cc45)CN3C2=O)n1	0.1 to 0.5
COc1ccc2c(c1)nc(O[C@@H]1C[C@H]3C(=O)N[C@]4(C(=O)NS(=O)(=O)C5(C)CC5)C[C@H]4/C=C\CCCCC[C@H](NC(=O)c4ccon4)C(=O)N3C1)c1ccc(F)cc12	0.1 to 0.5
COc1ccc2c(c1)nc(O[C@@H]1C[C@H]3C(=O)N[C@]4(C(=O)NS(=O)(=O)C5(C)CC5)C[C@H]4/C=C\CCCCC[C@H](NC(=O)c4ccn(C(F)F)n4)C(=O)N3C1)c1ccc(F)cc12	0.1 to 0.5
Cc1ccc(C(=O)N[C@H]2CCCCC/C=C\[C@@H]3C[C@@]3(C(=O)NS(=O)(=O)C3(C)CC3)NC(=O)[C@@H]3C[C@@H](Oc4nc5cc(F)ccc5c5cc(F)ccc45)CN3C2=O)s1	0.1 to 0.5

Test system: genotype 3a NS3 gene in transient replicon
Test: 3a transient replicon (luciferase reporter)
Format: cell-based, HCV
Settings: Hepatitis C virus, Huh-7, read-out: 3a transient replicon (nM)

SMILES	EC50 [nM]
Cc1ccc(C(=O)N[C@H]2CCCCC/C=C\[C@@H]3C[C@@]3(C(=O)NS(=O)(=O)C3(C)CC3)NC(=O)[C@@H]3C[C@@H](Oc4nc5ccccc5c5cc(F)ccc45)CN3C2=O)s1	> 1
Cn1ccc(C(=O)N[C@H]2CCCCC/C=C\[C@@H]3C[C@@]3(C(=O)NS(=O)(=O)C3CC3)NC(=O)[C@@H]3C[C@@H](Oc4nc5ccccc5c5cc(OC(F)(F)F)ccc45)CN3C2=O)n1	> 1
Cc1cc(C(=O)N[C@H]2CCCCC/C=C\[C@@H]3C[C@@]3(C(=O)NS(=O)(=O)C3CC3)NC(=O)[C@@H]3C[C@@H](Oc4nc5ccccc5c5cc(OC(F)(F)F)ccc45)CN3C2=O)no1	> 1
COc1ccc2c(c1)nc(O[C@@H]1C[C@H]3C(=O)N[C@]4(C(=O)NS(=O)(=O)C5(C)CC5)C[C@H]4/C=C\CCCCC[C@H](NC(=O)c4ccn(C)n4)C(=O)N3C1)c1ccc(F)cc12	0.1 to 0.5
CC1(S(=O)(=O)NC(=O)[C@@]23C[C@H]2/C=C\CCCCC[C@H](NC(=O)[C@H](O)C(F)(F)F)C(=O)N2C[C@H](Oc4nc5cc(OC(F)(F)F)ccc5c5ccccc45)C[C@H]2C(=O)N3)CC1	0.5 to 1
CC1(S(=O)(=O)NC(=O)[C@@]23C[C@H]2/C=C\CCCCC[C@H](NC(=O)c2ccn(C(F)F)n2)C(=O)N2C[C@H](Oc4nc5cc(F)ccc5c5ccc(OC(F)(F)F)cc45)C[C@H]2C(=O)N3)CC1	> 1
CC1(S(=O)(=O)NC(=O)[C@@]23C[C@H]2/C=C\CCCCC[C@H](NC(=O)[C@H](O)C(F)(F)F)C(=O)N2C[C@H](Oc4nc5ccccc5c5cc(F)ccc45)C[C@H]2C(=O)N3)CC1	> 1
Cc1cc(C(=O)N[C@H]2CCCCC/C=C\[C@@H]3C[C@@]3(C(=O)NS(=O)(=O)C3(C)CC3)NC(=O)[C@@H]3C[C@@H](Oc4nc5cc(F)ccc5c5ccc(OC(F)(F)F)cc45)CN3C2=O)no1	> 1
CC1(S(=O)(=O)NC(=O)[C@@]23C[C@H]2/C=C\CCCCC[C@H](NC(=O)[C@H](O)C(F)(F)F)C(=O)N2C[C@H](Oc4nc5cc(F)ccc5c5cc(F)ccc45)C[C@H]2C(=O)N3)CC1	> 1
CC1(S(=O)(=O)NC(=O)[C@@]23C[C@H]2/C=C\CCCCC[C@H](NC(=O)c2ccn(C(F)F)n2)C(=O)N2C[C@H](Oc4nc5ccccc5c5ccc(OC(F)(F)F)cc45)C[C@H]2C(=O)N3)CC1	> 1
Cn1ccc(C(=O)N[C@H]2CCCCC/C=C\[C@@H]3C[C@@]3(C(=O)NS(=O)(=O)C3(C)CC3)NC(=O)[C@@H]3C[C@@H](Oc4nc5ccccc5c5ccc(OC(F)(F)F)cc45)CN3C2=O)n1	0.1 to 0.5
COc1ccc2c(c1)nc(O[C@@H]1C[C@H]3C(=O)N[C@]4(C(=O)NS(=O)(=O)C5(C)CC5)C[C@H]4/C=C\CCCCC[C@H](NC(=O)c4ccon4)C(=O)N3C1)c1ccc(F)cc12	0.1 to 0.5
COc1ccc2c(c1)nc(O[C@@H]1C[C@H]3C(=O)N[C@]4(C(=O)NS(=O)(=O)C5(C)CC5)C[C@H]4/C=C\CCCCC[C@H](NC(=O)c4ccn(C(F)F)n4)C(=O)N3C1)c1ccc(F)cc12	0.5 to 1
Cc1ccc(C(=O)N[C@H]2CCCCC/C=C\[C@@H]3C[C@@]3(C(=O)NS(=O)(=O)C3(C)CC3)NC(=O)[C@@H]3C[C@@H](Oc4nc5cc(F)ccc5c5cc(F)ccc45)CN3C2=O)s1	> 1
